Our source for the EC50 and IC50 values is ChEMBL document CHEMBL1821627, “Medicinal chemistry as a conduit for the modulation of quorum sensing” (J Med Chem, 2010).

Where only a bound is given, the exact number is not on record here.

Usually EC50 stands for the concentration needed to bring the measured effect to its halfway point. By IC50 is commonly meant the midpoint of a concentration-inhibition curve.

One experiment concerns the target T1, Transcriptional activator protein LasR (Pseudomonas aeruginosa (strain ATCC 15692 / PAO1 / 1C / PRS 101 / LMG12228), UniProt P25084).
T1 sequence (P25084 whole entry): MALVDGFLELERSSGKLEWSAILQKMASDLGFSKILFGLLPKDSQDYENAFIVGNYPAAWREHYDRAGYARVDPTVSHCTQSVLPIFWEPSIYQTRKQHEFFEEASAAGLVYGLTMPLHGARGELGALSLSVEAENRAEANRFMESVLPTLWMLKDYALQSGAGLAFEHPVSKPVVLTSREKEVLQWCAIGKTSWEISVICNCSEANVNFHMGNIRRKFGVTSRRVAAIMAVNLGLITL
Put plainly: Agonist activity at Pseudomonas aeruginosa LasR cognate receptor expressed in Escherichia coli harboring pKDT17 assessed as activation of lasB expression by LacZ reporter gene assay. It counts as functional. For orientation: In a reporter assay the amount or activity of a reporter protein is the signal.
Take `CCCCCCCCCCCC(=O)N[C@H]1CCOC1=O`: the EC50 was 0.033 µM.
The same measure, in the same setting: to `CCCCCCCC(=O)CC(=O)N[C@H]1CCOC1=O` belongs 0.015 µM; to `CCCCC/C=C/CCC(=O)CC(=O)N[C@H]1CCOC1=O`, 0.01 µM.
Same read-out and setting: to `CCCCCCCCCC(O)CC(=O)N[C@H]1CCOC1=O` (stereo not given in full) belongs 0.054 µM; to `CCCCCCCCCC(=O)CC(=O)N[C@H]1CCSC1=O`, 0.007 µM.

Test system in the next experiment: not listed separately
Nature of the experiment: Inhibition of autoinducer-stimulated quorum sensing regulated bioluminescence in Vibrio fischeri by luminescence assay. More on the design: species or system Aliivibrio fischeri.
As for `CCCC(=O)CC(=O)N[C@H]1CCSC1=O`, half-maximal inhibition (IC50) required 0.131 µM.
In turn, `CCCCCCCCC(=O)N[C@H]1CCOC1=O` registered an IC50 of 0.0124 µM.

Molecular target in another experiment: not listed separately
Put plainly: Inhibition of quorum sensing Salmonella Typhimurium by beta-galactosidase transcription assay in presence of 50 uM DPD. Details: species or system Salmonella enterica subsp. enterica serovar Typhimurium.
Consider `[N-]=[N+]=NCCCCC(=O)C(=O)[C@@H](O)CO`, for which the IC50 turned out to be 20.3 µM.
Turning to `O=C(CCc1ccccc1)C(=O)[C@@H](O)CO`, the IC50 was over 50 µM.
As to `CCCCCCC(=O)C(=O)[C@@H](O)CO`, the IC50 was found to be 24.9 µM.
`CCC(=O)C(=O)[C@@H](O)CO`: the IC50 was over 50 µM.

Test system in the next experiment: not listed separately
Put plainly: Inhibition of quorum sensing regulated bioluminescence in Vibrio harveyi.
On to `OB(O)c1ccc(OCc2ccccc2)cc1`, for which the IC50 came to 4 µM.
`Oc1cccc(O)c1O` [PYROGALLOL] had an IC50 of 2 µM.
Same read-out and setting: to `CCOC(=O)CS(=O)(=O)c1ccc(-c2ccccc2)cc1` belongs 8.7 µM; to `Oc1ccccc1O` [CATECHOL], 59 µM.
Same read-out and setting: to `N#Cc1ccc(B(O)O)cc1` belongs 6 µM.
Still for that read-out and setting: to `CCOC(=O)CS(=O)(=O)c1ccc(-c2ccc3c(c2)OCCO3)cc1` belongs 158 µM; to `Cc1ccc(B(O)O)c(F)c1`, 4 µM; to `NC(=S)CS(=O)(=O)c1cccs1`, 35 µM.
`CCN(CC)C(=S)CS(=O)(=O)c1cccs1` registered an IC50 of 138 µM.
As to `O=C(c1ccccc1)c1ccc(O)c(O)c1O`, half-maximal inhibition (IC50) was put at 4 µM.
With `NC(=O)CS(=O)(=O)c1cccs1`, the IC50 is over 400 µM.
The same measure, in the same setting: to `CCOC(=O)CS(=O)(=O)c1ccc(-c2cncc3ccccc23)cc1` belongs over 400 µM; to `O=c1ccc2ccc(O)c(O)c2o1` [DAPHNETIN], 12 µM.
On the same count and under the same terms, as for `O=Cc1ccc(O)c(O)c1O`, the figure is 4 µM; as for `CCOC(=S)CS(=O)(=O)c1ccc(-c2ccccc2)cc1`, 5.7 µM.
On the same count and under the same terms, to `CCOC(=S)CS(=O)(=O)c1cccs1` belongs 22 µM; to `COC(=O)c1ccc(B(O)O)cc1`, 5 µM.
`Cc1ccc(B(O)O)cc1F` had an IC50 of 9 µM.
For the molecule `NC(=S)CS(=O)(=O)c1ccccn1`, half-maximal inhibition (IC50) was put at 35 µM.
